The record followed here is US5541183A, “Ginkgolide derivatives” (priority 1993, dated 1996).

Structures are written as SMILES. pIC50: −log10 of the molar value. Read-outs that look alike come from different tables or passages of the source.

For assay [1], the system named is Ag-induced bronchoconstriction. Description: Ag-induced bronchoconstriction in the guinea pig. It is filed as in vivo, guinea pig (Hartley strain). Conditions: for ED50: Cavia porcellus, iv, 10 min, read-out: ID50, Ag-induced bronchoconstriction. How it is done:
Pharmacology Example 3: Ag-induced bronchoconstriction
All experiments utilized male guinea pigs (Hartley strain), weighing 350 to 500 g. The animal was passively sensitized with rabbit anti-chicken egg albumin (1.3 mg/kg), 17-24 hrs before ovaibumin challenge. Passively sensitized animals were anesthetized with ethyl carbamate 1.5 g/kg, i.p.). An intratracheal cannula was inserted into trachea and indwelling catheters were inserted into the right carotid artery and left jugular vein. The animals were ventilated with a small animal respirator (UGO BASILE 7025, 70 breaths/min, 1 ml/stroke/100 g). To monitor dead or not, mean arterial pressure was measured continuously with a pressure transducer (Physiological Pressure Transducer, MICRON INSTRUMENT MP-15) connected to an amplifier (COULBOURN INSTRUMENT 572-25) and recorder (COULBOURN INSTRUMENT R14-18). The rate of bronchoconstriction was measured as an increase in lung overflow with a bronchospasm transducer (UGO BASILE 7020) from a side arm off the tracheal cannula, and expressed as a percentage of maximum broncoconstriction obtained by clamping off the tracheal cannular. Test compounds or vehicle (0.5% DMSO) were administered through the cannula into the jugular vein and ovalbumin (1.0 mg/kg, i.v.) was administered 10 minutes later. Bronchoconstriction response was compared to that obtained with control group treated with vehicle. Percent inhibition was calculated for each dose. If necessary, log dose-response curves were generated and the ID50 values were determined by regression analysis.

Assay [2] concerns PAF-induced rabbit platelet aggregation. Description: PAF-induced rabbit platelet aggregation. Conditions: Oryctolagus cuniculus, read-out: IC50, inhibition of PAF-induced rabbit platelet aggregation. In kind it is cell-based, rabbit (New Zealand white). The method, then:
Pharmacology Example 1: PAF-induced rabbit platelet aggregation
Blood was collected from the ear artery of a male New Zealand white rabbit and mixed with 3.8% sodium citrate in a 9:1 volume ratio. Platelet rich plasma (PRP) was obtained by centrifugation of the blood at 150 g for 10 min at room temperature. The number of platelets was adjusted to 3×10^8 platelets/ml with platelet poor plasma. Platelet aggregation was monitored by continuous recording of light transmission in a dual-channel aggregometer (Chrono-Log 560-VS) coupled with a two channel recorder (Chrono-Log 707). Stirred PRP was treated with various concentrations of the test compounds or vehicle (0.5% DMSO) for 2 min and then PAF(5×10^-9 M) was added to induce platelet aggregation.
Inhibition values were calculated by comparing the extent of aggregation obtained in the presence of the vehicle alone (0.5% DMSO) and in the presence of a test compound. Log concentration-response curves were generated and the IC50 values were determined by regression analysis.
Table 1 lists results from this assay for inhibition of PAF-induced rabbit platelet aggregation for illustrative examples of the compounds of this invention.

The mark [3] stands for this setting: 0.1 mg/kg, jugular vein, ovalbumin 1.0 mg/kg i.v. 10 minutes later.
[4] abbreviates: 0.5 mg/kg, jugular vein, ovalbumin 1.0 mg/kg i.v. 10 minutes later.
[5] abbreviates: 1.0 mg/kg, jugular vein, ovalbumin 1.0 mg/kg i.v. 10 minutes later.
Where [6] appears, read: jugular vein, ovalbumin 1.0 mg/kg i.v. 10 minutes later.

As usually defined, the pIC50 is the negative decadic logarithm of the IC50, by convention in mol/L. For `COc1c(C)cnc(COC2C(=O)OC3OC45C(=O)OC6CC(C(C)(C)C)C32C64C(O)C2OC(=O)C(C)C25O)c1C` (centres unmarked) [Example 97, 10-(4-methoxy-3,5-dimethyl-2-pyridinyl) -methoxy-Ginkgolide B], the “% inhibition of Ag-induced bronchoconstriction” value (shortened to “% inhibition”) in assay [1] (setting [3]) came to 30%; in assay [1] (setting [4]), 68%; in assay [1] (setting [5]) it was 100%. Also, in assay [1] (setting [6]), the ED50 is 0.42 mg/kg. Moreover, in assay [2] (rabbit PRP, PAF 5×10^-9 M), the pIC50 was 7.41.
In the case of `CC1C(=O)OC2C(O)C34C5CC(C(C)(C)C)C36C(OC(=O)C6OCc3ccccn3)OC4(C(=O)O5)C12O` (centres unmarked) [Example 99, 10-(2-pyridinyl)-methoxy-Ginkgolide B], the “% inhibition” value was 42% in assay [1] (setting [3]), 73% in assay [1] (setting [4]) and 100% in assay [1] (setting [5]). For the same molecule, the ED50 in assay [1] amounted to 0.31 mg/kg. Also, the negative logarithm of the IC50 (pIC50) in assay [2] was 7.51.
`Cc1cnc(COC2C(=O)OC3OC45C(=O)OC6CC(C(C)(C)C)C32C64C(O)C2OC(=O)C(C)C25O)c(C)c1N` (centres unmarked) [Example 103, 10-(3,5-dimethyl-4-amino-2-pyridinyl)-methoxy-Ginkgolide B]: the “% inhibition” value came out at 10% in assay [1] (setting [3]), 62% in assay [1] (setting [4]) and 97% in assay [1] (setting [5]). Moreover, the ED50 in assay [1] (setting [6]) amounted to 0.48 mg/kg. Further, the pIC50 in assay [2] (rabbit PRP, PAF 5×10^-9 M) was 7.06.
On to `Cc1cnc(COC2C(=O)OC3OC45C(=O)OC6CC(C(C)(C)C)C32C64C(O)C2OC(=O)C(C)C25O)c(C)c1NC(=O)c1ccccc1` (centres unmarked) [Example 105, 10-(4-benzoylamino-3,5-dimethyl-2-pyridinyl)-methoxy-Ginkgolide B], for which, in assay [2] (rabbit PRP, PAF 5×10^-9 M), the negative-log IC50 (pIC50) is 7.49.
In the case of `Cc1cnc(COC2C(=O)OC3OC45C(=O)OC6CC(C(C)(C)C)C32C64C(O)C2OC(=O)C(C)C25O)c(C)c1N(O)C(=O)c1ccccc1` (centres unmarked) [Example 106, 10-(4-N-benzoyl-N-hydroxyamino-3,5-dimethyl-2-pyridinyl)-methoxy Ginkgolide B], the negative logarithm of the IC50 (pIC50) in assay [2] (rabbit PRP, PAF 5×10^-9 M) is 7.33.
On the same count and under the same terms, in the case of `CC1C(=O)OC2C(O)C34C5CC(C(C)(C)C)C36C(OC(=O)C6OCc3ccc(Cl)nc3)OC4(C(=O)O5)C12O` (centres unmarked) [Example 107, 10-(6-chloro-3-pyridinyl)-methoxy-Ginkgolide B] it was 6.80; in that of `CC1C(=O)OC2C(O)C34C5CC(C(C)(C)C)C36C(OC(=O)C6OCc3cccnc3)OC4(C(=O)O5)C12O` (centres unmarked) [Example 108, 10-(3-pyridinyl)-methoxy-Ginkgolide B], 6.87.
Still for that read-out and setting: in the case of `CC1C(=O)OC2C(O)C34C5CC(C(C)(C)C)C36C(OC(=O)C6OCc3ccncc3)OC4(C(=O)O5)C12O` (centres unmarked) [Example 109, 10-(4-pyridinyl)-methoxy-Ginkgolide B] it was 6.91; in that of `CCOc1ccnc(COC2C(=O)OC3OC45C(=O)OC6CC(C(C)(C)C)C32C64C(O)C2OC(=O)C(C)C25O)c1` (centres unmarked) [Example 110], 6.80; in that of `CC1C(=O)OC2C(O)C34C5CC(C(C)(C)C)C36C(OC(=O)C6OCc3cc([N+](=O)[O-])ccn3)OC4(C(=O)O5)C12O` (centres unmarked) [Example 111, 10-(4-nitro-2-myridinyl)-methoxy Ginkgolide B], 6.97.
`CCCOc1ccc(C)nc1COC1C(=O)OC2OC34C(=O)OC5CC(C(C)(C)C)C21C53C(O)C1OC(=O)C(C)C14O` (centres unmarked) [Example 112]: the negative-log IC50 (pIC50) in assay [2] (rabbit PRP, PAF 5×10^-9 M) was 6.91.
As for `CC1C(=O)OC2C(O)C34C5CC(C(C)(C)C)C36C(OC(=O)C6OCc3cc(NO)ccn3)OC4(C(=O)O5)C12O` (centres unmarked) [Example 113, 10-(2-(4-hydroxyaminopyridinyl)-methoxy)-Ginkgolide B], in assay [2] (rabbit PRP, PAF 5×10^-9 M), the pIC50 is 6.95.
In the case of `COCCOCOc1ccc(COC2C(=O)OC3OC45C(=O)OC6CC(C(C)(C)C)C32C64C(O)C2OC(=O)C(C)C25O)nc1` (centres unmarked) [Example 114], the pIC50 in assay [2] is 6.86.
Regarding `CC1C(=O)OC2C(O)C34C5CC(C(C)(C)C)C36C(OC(=O)C6OCCBr)OC4(C(=O)O5)C12O` (centres unmarked) [Example 116, 10-(2'-bromoethoxy)-Ginkgolide B], in assay [2] (rabbit PRP, PAF 5×10^-9 M), the negative logarithm of the IC50 (pIC50) is 6.95.
Turning to `CC1C(=O)OC2C(O)C34C5CC(C(C)(C)C)C36C(OC(=O)C6OCCI)OC4(C(=O)O5)C12O` (centres unmarked) [Example 117, 10-(2'-iodoethoxy)-Ginkgolide B], the pIC50 in assay [2] is 7.27.
On to `CC1C(=O)OC2C(O)C34C5CC(C(C)(C)C)C36C(OC(=O)C6OCCN3CCCCC3)OC4(C(=O)O5)C12O` (centres unmarked) [Example 118, 10-(2'-(1"-piperidinyl)-ethoxy)-Ginkgolide B], for which the pIC50 in assay [2] (rabbit PRP, PAF 5×10^-9 M) was 7.33.
On to `CC1C(=O)OC2C(O)C34C5CC(C(C)(C)C)C36C(OC(=O)C6OCCN3CCOCC3)OC4(C(=O)O5)C12O` (centres unmarked) [Example 119, 10-(2'-(1"-morpholinyl)-ethoxy)-Ginkgolide B], for which the pIC50 in assay [2] (rabbit PRP, PAF 5×10^-9 M) was 7.27.
As for `CC1C(=O)OC2C(O)C34C5CC(C(C)(C)C)C36C(OC(=O)C6OCCn3cncn3)OC4(C(=O)O5)C12O` (centres unmarked) [Example 120, 10-(2'-(1"-(1",2",4"-triazolyl)-ethoxy))-Ginkgolide B], in assay [2] (rabbit PRP, PAF 5×10^-9 M), the pIC50 was 7.21.
For the molecule `CC1C(=O)OC2C(O)C34C5CC(C(C)(C)C)C36C(OC(=O)C6OCCN3CCNCC3)OC4(C(=O)O5)C12O` (centres unmarked) [Example 121, 10-(2'-(1"-piperazinyl)-ethoxy)-Ginkgolide B], in assay [2] (rabbit PRP, PAF 5×10^-9 M), the pIC50 was 7.24.
For the molecule `CC1C(=O)OC2C(O)C34C5CC(C(C)(C)C)C36C(OC(=O)C6OCCN3CCCC3)OC4(C(=O)O5)C12O` (centres unmarked) [Example 122, 10-(2'-(1"-pyrrolidinyl)-ethoxy)-Ginkgolide B], the pIC50 in assay [2] (rabbit PRP, PAF 5×10^-9 M) is 7.25.
